Test results as given in ChEMBL document CHEMBL3885881, “DrugMatrix”.

Species: Rattus norvegicus
Assay: DrugMatrix - Regimen: Daily Repeat
Format: toxicity, organism-based, Sprague-Dawley
Design: regimen Daily Repeat, gender Male, age 6-8 weeks
Conditions: in vivo, po, route oral GAVAGE, vehicle .5 % CMC; for ABSOLUTE BASOPHIL / ABSOLUTE EOSINOPHIL / ABSOLUTE LYMPHOCYTE / ABSOLUTE MONOCYTE / ABSOLUTE SEGMENTED NEUTROPHIL / BASOPHIL / EOSINOPHIL / ERYTHROCYTE COUNT / HEMATOCRIT / HEMOGLOBIN / LEUKOCYTE COUNT / LYMPHOCYTE / MEAN CORPUSCULAR HEMOGLOBIN / MEAN CORPUSCULAR HEMOGLOBIN CONCENTRATION / MEAN CORPUSCULAR VOLUME / MONOCYTE / NEUTROPHIL / NUCLEATED RED BLOOD CELLS / PLATELET COUNT: tissue Blood; for ALANINE AMINOTRANSFERASE / ALBUMIN / ALKALINE PHOSPHATASE / ASPARTATE AMINOTRANSFERASE / BLOOD UREA NITROGEN / CARBON DIOXIDE / CHLORIDE / CHOLESTEROL / CREATINE PHOSPHOKINASE / CREATININE / GLUCOSE / LACTATE DEHYDROGENASE / LIPASE / PHOSPHORUS / POTASSIUM / SODIUM / TOTAL BILIRUBIN / TOTAL PROTEIN / URIC ACID: tissue Plasma
[1] = 0 mg/kg, 72 h, dose level Control, time 3 day
[2] = 0 mg/kg, 120 h, dose level Control, time 5 day
[3] = 1200 mg/kg, 72 h, dose level High, time 3 day

SMILES: CCC[C@@H]1C[C@@H](C(=O)N[C@@H]([C@H]2O[C@H](SC)[C@H](O)[C@@H](O)[C@H]2O)[C@@H](C)O)N(C)C1 [LINCOMYCIN]
- ABSOLUTE BASOPHIL [1]: 0 CELLS/uL
- ABSOLUTE EOSINOPHIL [1]: 0 CELLS/uL
- ABSOLUTE LYMPHOCYTE [1]: 12269.67 CELLS/uL
- ABSOLUTE MONOCYTE [1]: 160.33 CELLS/uL
- ABSOLUTE SEGMENTED NEUTROPHIL [1]: 970 CELLS/uL
- BASOPHIL [1]: 0%
- EOSINOPHIL [1]: 0%
- ERYTHROCYTE COUNT [1]: 5.76 x10E6/uL
- HEMATOCRIT [1]: 36.57%
- HEMOGLOBIN [1]: 14.22 G/DL
- LEUKOCYTE COUNT [1]: 13.4 x10E3/uL
- LYMPHOCYTE [1]: 91.67%
- MEAN CORPUSCULAR HEMOGLOBIN [1]: 24.67 pg
- MEAN CORPUSCULAR HEMOGLOBIN CONCENTRATION [1]: 38.85 G/DL
- MEAN CORPUSCULAR VOLUME [1]: 63.52 fL
- MONOCYTE [1]: 1.17%
- NEUTROPHIL [1]: 7.17%
- NUCLEATED RED BLOOD CELLS [1]: 0.33 /100WBC
- PLATELET COUNT [1]: 1250.83 x10E3/uL
- ALANINE AMINOTRANSFERASE [1]: 49.17 u/L
- ALBUMIN [1]: 4.33 G/DL
- ALKALINE PHOSPHATASE [1]: 378.5 u/L
- ASPARTATE AMINOTRANSFERASE [1]: 82.17 u/L
- BLOOD UREA NITROGEN [1]: 15 mg/dL
- CARBON DIOXIDE [1]: 34.33 mmol/L
- CHLORIDE [1]: 99.17 MEQ/L
- CHOLESTEROL [1]: 71.17 mg/dL
- CREATINE PHOSPHOKINASE [1]: 258.67 u/L
- CREATININE [1]: 0.18 mg/dL
- GLUCOSE [1]: 142.67 mg/dL
- LACTATE DEHYDROGENASE [1]: 154.33 u/L
- LIPASE [1]: 9 u/L
- PHOSPHORUS [1]: 11.67 mg/dL
- POTASSIUM [1]: 7.13 MEQ/L
- SODIUM [1]: 142.22 MEQ/L
- TOTAL BILIRUBIN [1]: 0.18 mg/dL
- TOTAL PROTEIN [1]: 5.77 G/DL
- URIC ACID [1]: 1.55 mg/dL
- ABSOLUTE BASOPHIL [2]: 0 CELLS/uL
- ABSOLUTE EOSINOPHIL [2]: 23.33 CELLS/uL
- ABSOLUTE LYMPHOCYTE [2]: 14943.67 CELLS/uL
- ABSOLUTE MONOCYTE [2]: 32 CELLS/uL
- ABSOLUTE SEGMENTED NEUTROPHIL [2]: 1084.33 CELLS/uL
- BASOPHIL [2]: 0%
- EOSINOPHIL [2]: 0.17%
- ERYTHROCYTE COUNT [2]: 5.71 x10E6/uL
- HEMATOCRIT [2]: 35.28%
- HEMOGLOBIN [2]: 14.27 G/DL
- LEUKOCYTE COUNT [2]: 16.08 x10E3/uL
- LYMPHOCYTE [2]: 93%
- MEAN CORPUSCULAR HEMOGLOBIN [2]: 25.02 pg
- MEAN CORPUSCULAR HEMOGLOBIN CONCENTRATION [2]: 40.43 G/DL
- MEAN CORPUSCULAR VOLUME [2]: 61.82 fL
- MONOCYTE [2]: 0.17%
- NEUTROPHIL [2]: 6.67%
- NUCLEATED RED BLOOD CELLS [2]: 0.33 /100WBC
- PLATELET COUNT [2]: 1274 x10E3/uL
- ALANINE AMINOTRANSFERASE [2]: 54.17 u/L
- ALBUMIN [2]: 4.22 G/DL
- ALKALINE PHOSPHATASE [2]: 373.17 u/L
- ASPARTATE AMINOTRANSFERASE [2]: 81.83 u/L
- BLOOD UREA NITROGEN [2]: 16.67 mg/dL
- CARBON DIOXIDE [2]: 30.33 mmol/L
- CHLORIDE [2]: 99 MEQ/L
- CHOLESTEROL [2]: 71 mg/dL
- CREATINE PHOSPHOKINASE [2]: 273.5 u/L
- CREATININE [2]: 0.22 mg/dL
- GLUCOSE [2]: 141.83 mg/dL
- LACTATE DEHYDROGENASE [2]: 153.67 u/L
- LIPASE [2]: 10.33 u/L
- PHOSPHORUS [2]: 11.38 mg/dL
- POTASSIUM [2]: 7.08 MEQ/L
- SODIUM [2]: 142.75 MEQ/L
- TOTAL BILIRUBIN [2]: 0.18 mg/dL
- TOTAL PROTEIN [2]: 6.1 G/DL
- URIC ACID [2]: 1.67 mg/dL
- ABSOLUTE BASOPHIL [3]: 0 CELLS/uL
- ABSOLUTE EOSINOPHIL [3]: 0 CELLS/uL
- ABSOLUTE LYMPHOCYTE [3]: 14618 CELLS/uL
- ABSOLUTE MONOCYTE [3]: 0 CELLS/uL
- ABSOLUTE SEGMENTED NEUTROPHIL [3]: 1248.67 CELLS/uL
- BASOPHIL [3]: 0%
- EOSINOPHIL [3]: 0%
- ERYTHROCYTE COUNT [3]: 5.99 x10E6/uL
- HEMATOCRIT [3]: 37.8%
- HEMOGLOBIN [3]: 15 G/DL
- LEUKOCYTE COUNT [3]: 15.87 x10E3/uL
- LYMPHOCYTE [3]: 92.33%
- MEAN CORPUSCULAR HEMOGLOBIN [3]: 25.1 pg
- MEAN CORPUSCULAR HEMOGLOBIN CONCENTRATION [3]: 39.73 G/DL
- MEAN CORPUSCULAR VOLUME [3]: 63.2 fL
- MONOCYTE [3]: 0%
- NEUTROPHIL [3]: 7.67%
- NUCLEATED RED BLOOD CELLS [3]: 0 /100WBC
- PLATELET COUNT [3]: 1182.33 x10E3/uL
- ALANINE AMINOTRANSFERASE [3]: 58.67 u/L
- ALBUMIN [3]: 4.3 G/DL
- ALKALINE PHOSPHATASE [3]: 350.33 u/L
- ASPARTATE AMINOTRANSFERASE [3]: 86.33 u/L
- BLOOD UREA NITROGEN [3]: 17.33 mg/dL
- CARBON DIOXIDE [3]: 33.33 mmol/L
- CHLORIDE [3]: 99 MEQ/L
- CHOLESTEROL [3]: 100.67 mg/dL
- CREATINE PHOSPHOKINASE [3]: 190.67 u/L
- CREATININE [3]: 0.21 mg/dL
- GLUCOSE [3]: 155.33 mg/dL
- LACTATE DEHYDROGENASE [3]: 170.67 u/L
- LIPASE [3]: 9.67 u/L
- PHOSPHORUS [3]: 12.27 mg/dL
- POTASSIUM [3]: 7.02 MEQ/L
- SODIUM [3]: 145.6 MEQ/L
- TOTAL BILIRUBIN [3]: 0.23 mg/dL
- TOTAL PROTEIN [3]: 6.23 G/DL
- URIC ACID [3]: 1.33 mg/dL
